In patent US9187465B2, “Oxazole tyrosine kinase inhibitors” (Sareum Limited, priority 2007, dated 2015) one finds IC50 data, which are given here for 20 compounds.

Where a name gives a salt, the structure may show the parent alone.

Type in all cases: biochemical
One assay deals with T1, human FLT4 (Homo sapiens, UniProt P35916).
T1 construct: a construct expressing the human FLT4 (789-1207) with an amino terminal GST tag; host or cells: Sf9 insect cells (baculovirus)
Nature of the assay: FLT4 kinase assay (DELFIA enzyme inhibition). The following applies: read-out: FLT4 IC50. In short, it runs like this:
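GST-tagged human FLT4 (789-1207) from Sf9 cells phosphorylates a biotinylated MET (Tyr1253)-derived peptide for 30 min at room temperature, stopped with EDTA. Phosphopeptide is captured on Neutravidin and detected with Eu-labelled anti-phosphotyrosine antibody by time-resolved fluorescence; IC50 from % inhibition curves.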

A further assay has as its target T2, human FLT3 (Homo sapiens, UniProt P36888).
T2 construct: a construct expressing the human FLT3 (564-993) with an amino terminal GST tag; host or cells: Sf9 insect cells (baculovirus)
T2 sequence (P36888 564-993): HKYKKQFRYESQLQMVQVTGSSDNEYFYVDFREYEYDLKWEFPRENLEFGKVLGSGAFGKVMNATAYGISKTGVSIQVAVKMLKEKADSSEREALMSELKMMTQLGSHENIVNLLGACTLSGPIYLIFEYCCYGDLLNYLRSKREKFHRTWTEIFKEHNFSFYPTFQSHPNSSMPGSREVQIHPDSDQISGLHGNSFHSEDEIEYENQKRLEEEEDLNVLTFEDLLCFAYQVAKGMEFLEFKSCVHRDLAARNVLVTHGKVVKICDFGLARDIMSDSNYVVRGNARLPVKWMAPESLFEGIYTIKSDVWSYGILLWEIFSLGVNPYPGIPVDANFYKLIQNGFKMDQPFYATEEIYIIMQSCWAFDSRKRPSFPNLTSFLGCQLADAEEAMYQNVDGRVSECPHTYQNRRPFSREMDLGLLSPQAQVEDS
Nature of the assay: FLT3 kinase assay (DELFIA enzyme inhibition). In short, it runs like this:
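GST-tagged human FLT3 (564-993), expressed in sf9 cells, phosphorylated a biotinylated Gastrin Precursor (Tyr 87)-derived peptide for 30 min at room temperature before EDTA stop. The captured peptide was detected by Eu-labelled anti-phosphotyrosine DELFIA time-resolved fluorescence. IC50 was derived from % inhibition curves.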

The target in another assay is T3, human Aurora A (Homo sapiens, UniProt O14965).
T3 construct: Histidine tag (N); host or cells: Sf9 insect cells (baculovirus)
T3 sequence (O14965 1-403): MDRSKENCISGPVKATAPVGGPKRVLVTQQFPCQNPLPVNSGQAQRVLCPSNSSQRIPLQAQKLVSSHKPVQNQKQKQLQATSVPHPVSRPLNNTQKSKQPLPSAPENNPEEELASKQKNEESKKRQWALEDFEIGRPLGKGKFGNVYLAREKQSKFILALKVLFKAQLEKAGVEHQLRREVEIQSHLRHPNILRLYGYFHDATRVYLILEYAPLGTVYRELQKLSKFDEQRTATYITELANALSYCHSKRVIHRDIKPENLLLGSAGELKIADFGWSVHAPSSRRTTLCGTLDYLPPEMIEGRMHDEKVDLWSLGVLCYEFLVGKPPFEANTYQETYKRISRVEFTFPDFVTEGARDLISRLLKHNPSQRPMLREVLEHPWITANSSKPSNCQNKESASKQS
The experiment in a line: Aurora A kinase assay (DELFIA enzyme inhibition). The following applies: read-out: Aurora A IC50. In short, it runs like this: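 DELFIA read-out (time-resolved Eu fluorescence, 620 nm emission) after Neutravidin capture of biotinylated peptide substrate and antibody detection. Reaction: Ni-agarose-purified Aurora A, 30 min at room temperature, stopped with 100 mM EDTA.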

Broadly, the IC50 is the point on the concentration scale where inhibition reaches its midpoint.

T1 sequence (P35916 789-1207): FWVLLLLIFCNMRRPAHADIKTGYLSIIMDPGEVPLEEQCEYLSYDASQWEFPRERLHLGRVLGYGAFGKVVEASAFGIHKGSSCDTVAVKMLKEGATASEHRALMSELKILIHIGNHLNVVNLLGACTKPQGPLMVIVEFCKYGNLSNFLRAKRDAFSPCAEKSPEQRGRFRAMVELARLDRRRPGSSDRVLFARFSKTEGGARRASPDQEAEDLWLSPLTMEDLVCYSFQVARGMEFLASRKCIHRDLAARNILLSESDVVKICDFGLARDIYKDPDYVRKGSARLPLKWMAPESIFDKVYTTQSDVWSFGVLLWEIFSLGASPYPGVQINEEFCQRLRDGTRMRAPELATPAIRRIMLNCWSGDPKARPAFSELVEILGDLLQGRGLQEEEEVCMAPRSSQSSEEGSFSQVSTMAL

Take `NC(=O)c1nc(-c2c(F)cccc2F)oc1Nc1ccc(C(=O)NCC2CN(Cc3ccccc3)CCO2)cc1` (stereo not drawn) [Example U-5, 5-(4-(((4-benzylmorpholin-2-yl)methyl)carbamoyl)phenylamino)-2-(2,6-difluorophenyl)oxazole-4-carboxamide]: the IC50 at human FLT4, at human FLT3 and on human Aurora A was less than 10 µM in each case.
Take `NC(=O)c1nc(-c2c(F)cccc2F)oc1-c1ccc(OCCN2CCC(C(N)=O)CC2)cc1` [Example S-10, 1-(2-(4-(4-carbamoyl-2-(2,6-difluorophenyl)oxazol-5-yl)phenoxy)ethyl)piperidine-4-carboxamide]: the IC50 on human FLT4, against human FLT3 and on human Aurora A was less than 10 µM each time.
For the compound `NC(=O)c1nc(Nc2cnn(Cc3ccccc3)c2)oc1-c1ccc(N2CCNCC2)cc1` [Example R-17, 2-(1-benzyl-1H-pyrazol-4-ylamino)-5-(4-(piperazin-1-yl)phenyl)oxazole-4-carboxamide], the IC50 on human FLT4, at human FLT3 and on human Aurora A was less than 10 µM each time.
On to `NC(=O)c1nc(-c2c(F)cccc2F)oc1-c1ccc(OCCN2CCCCC2)cc1` [Example F-14, 2-(2,6-difluorophenyl)-5-(4-(2-(piperidin-1-yl)ethoxy)phenyl)oxazole-4-carboxamide], for which the IC50 on human FLT4, at human FLT3 and on human Aurora A was less than 10 µM throughout.
Consider `NC(=O)c1nc(-c2c(F)cccc2F)oc1-c1ccc(CN2CCNCC2)cc1` [Example G-1, 2-(2,6-difluorophenyl)-5-(4-(piperazin-1-ylmethyl)phenyl)oxazole-4-carboxamide], for which the results for the half-inhibitory concentration (IC50) on human FLT4, at human FLT3 and at human Aurora A were less than 10 µM, less than 100 µM and less than 10 µM, respectively.
Take `NC(=O)c1nc(-c2c(F)cccc2F)oc1Nc1ccc(C(=O)O)cc1` [Example U-1, 4-(4-carbamoyl-2-(2,6-difluorophenyl)oxazol-5-ylamino)benzoic acid]: the IC50 on human FLT4, at human FLT3 and at human Aurora A was less than 10 µM each time.
Take `NC(=O)c1nc(-c2c(F)cccc2F)oc1-c1ccc(COCCN2CCOCC2)cc1` [Example F-12, 2-(2,6-difluorophenyl)-5-(4-((2-morpholinoethoxy)methyl)phenyl)oxazole-4-carboxamide]: the concentration for half-maximal inhibition (IC50) at human FLT4 is less than 10 µM; on human FLT3, less than 100 µM; on human Aurora A, less than 10 µM.
In the case of `NC(=O)c1nc(-c2c(F)cccc2F)oc1Nc1ccc(C2=NNC(=O)C2)cc1` [Example Q-32, 2-(2,6-difluorophenyl)-5-(4-(5-oxo-4,5-dihydro-1H-pyrazol-3-yl)phenylamino)oxazole-4-carboxamide], the IC50 at human FLT4, on human FLT3 and on human Aurora A was less than 10 µM in each case.
On to `NC(=O)c1nc(-c2c(F)cccc2F)oc1Nc1ccc(-n2cncn2)cc1` [Example Q-30, 5-(4-(1H-1,2,4-triazol-1-yl)phenylamino)-2-(2,6-difluorophenyl)oxazole-4-carboxamide], for which the figures for the IC50 on human FLT4, against human FLT3 and at human Aurora A were less than 10 µM, less than 100 µM and less than 10 µM, respectively.
For `CN1CCN(CC(O)COc2ccc(-c3oc(-c4c(F)cccc4F)nc3C(N)=O)cc2)CC1` (stereo not drawn) [Example T-3, 2-(2,6-difluorophenyl)-5-(4-(2-hydroxy-3-(4-methylpiperazin-1-yl)propoxy)phenyl)oxazole-4-carboxamide], the concentration for half-maximal inhibition (IC50) at human FLT4, against human FLT3 and at human Aurora A was less than 10 µM each time.
Consider `CN1CCN(C(=O)c2ccc(Nc3oc(-c4c(F)cccc4F)nc3C(N)=O)cc2)[C@H](CO)C1` [Example U-27, (S)-2-(2,6-difluorophenyl)-5-(4-(3-(hydroxymethyl)-1-methylpiperazine-4-carbonyl)phenylamino)oxazole-4-carboxamide], for which the 50% inhibitory concentration (IC50) at human FLT4, at human FLT3 and on human Aurora A was less than 10 µM throughout.
In the case of `NC(=O)c1nc(-c2c(F)cccc2F)oc1-c1ccc(OCC(O)CN2CCC(O)CC2)cc1` (stereo not drawn) [Example T-4, 2-(2,6-difluorophenyl)-5-(4-(2-hydroxy-3-(4-hydroxypiperidin-1-yl)propoxy)phenyl)oxazole-4-carboxamide], the half-maximal inhibitory concentration (IC50) on human FLT4, on human FLT3 and on human Aurora A was less than 10 µM in each case.
Take `NC(=O)c1nc(-c2c(F)cccc2F)oc1-c1ccc(OCCN2CCNC(=O)C2)cc1` [Example S-9, 2-(2,6-difluorophenyl)-5-(4-(2-(3-oxopiperazin-1-yl)ethoxy)phenyl)oxazole-4-carboxamide]: the 50% inhibitory concentration (IC50) at human FLT4, against human FLT3 and at human Aurora A was less than 10 µM throughout.
Consider `CN1CCN(c2ccc(-c3oc(-c4c(F)cccc4F)nc3C(N)=O)cn2)CC1` [Example H-2, 2-(2,6-difluorophenyl)-5-(6-(4-methylpiperazin-1-yl)pyridin-3-yl)oxazole-4-carboxamide], for which the concentration for half-maximal inhibition (IC50) at human FLT4, against human FLT3 and on human Aurora A was less than 10 µM throughout.
`CN1CCN(C(=O)c2ccc(Nc3oc(-c4c(F)cccc4F)nc3C(N)=O)cc2)[C@@H](CO)C1` [Example U-26, (R)-2-(2,6-difluorophenyl)-5-(4-(3-(hydroxymethyl)-1-methylpiperazine-4-carbonyl)phenylamino)oxazole-4-carboxamide]: the IC50 at human FLT4, at human FLT3 and on human Aurora A was less than 10 µM throughout.
For the compound `CN1CCC(NC(=O)c2ccc(Nc3oc(-c4c(F)cccc4F)nc3C(N)=O)cc2)CC1` [Example U-18, 5-(4-((1-methylpiperidin-4-yl)carbamoyl)phenylamino)-2-(2,6-difluorophenyl) oxazole-4-carboxamide], the IC50 at human FLT4, on human FLT3 and on human Aurora A was less than 10 µM in each case.
As for `NC(=O)c1nc(-c2c(F)cccc2F)oc1Nc1ccc(-n2cnnn2)cc1` [Example Q-31, 5-(4-(1H-tetrazol-1-yl)phenylamino)-2-(2,6-difluorophenyl)oxazole-4-carboxamide], the IC50 at human FLT4, against human FLT3 and at human Aurora A was less than 10 µM in each case.
Consider `NC(=O)c1nc(-c2c(F)cccc2F)oc1-c1ccc(N2CCNCC2)nc1` [Example G-2, 2-(2,6-difluorophenyl)-5-(6-(piperazin-1-yl)pyridin-3-yl)oxazole-4-carboxamide dihydrochloride], for which the IC50 on human FLT4, on human FLT3 and at human Aurora A was less than 10 µM in each case.
For the compound `CC(=O)N1CCN(Cc2ccc(-c3oc(-c4c(F)cccc4F)nc3C(N)=O)cc2)CC1` [Example F-11, 5-(4-((4-acetylpiperazin-1-yl)methyl)phenyl)-2-(2,6-difluorophenyl)oxazole-4-carboxamide], the IC50 is less than 10 µM on human FLT4, less than 100 µM at human FLT3 and less than 10 µM on human Aurora A.
With `CN1CCN(Cc2ccc(-c3oc(-c4c(F)cccc4F)nc3C(N)=O)cc2)CC1` [Example F-10, 2-(2,6-difluorophenyl)-5-(4-((4-methylpiperazin-1-yl)methyl)phenyl)oxazole-4-carboxamide], the IC50 at human FLT4 was less than 10 µM; against human FLT3 it was less than 100 µM; on human Aurora A it was less than 10 µM.
